From US8883165B2, “Modified peptide vaccine derived from influenza M2” (The Chemo-Sero-Therapeutic Research Institute, priority 2009, dated 2014)
Several values for one entry are separate records, joined by “and”; a condition that tells them apart may be missing. Equal values may be shown once. Entries after “also recorded” stand apart in the source; their conditions may differ.

These sequences were tested on M2e. Conditions: mouse, in vivo.
Design: species or system BALB/c mice
With “SLLTEVETPTRSEWECRCSCDCSCSD [swM2eC212223]” the “anti-M2e antibody titer immediately before challenge” value was “the highest; also recorded: high anti-M2e antibody titer”.

Each sequence was assayed on M2e. Conditions: mouse, in vivo, sc.
Design: species or system BALB/c mice
In the case of SLLTEVETPIRNECWCGCRCNCDSSD [M2eC151621], the “anti-M2e antibody titer, comparison in words” value is reported as “antibody titer comparable to M2e”. In the case of “SLLTEVETPIRNEWCGCRCNCDCSCSCD [M2eC1621222324]”, the “anti-M2e antibody titer, comparison in words” value is reported as “higher than that of M2eC162122”. In the case of “SLLTEVETPIRNEWCGCRCNCDCSCSD [M2eC16212223]”, the “anti-M2e antibody titer, comparison in words” value is reported as “higher than that of M2eC162122”. With SLLTEVETPIRNEWCGCRCNCDCSSD [M2eC162122] the “anti-M2e antibody titer, comparison in words” value was “higher antibody titer than that of M2e”. In the case of SLLTEVETPIRNEWCGCRCNCDSSD [M2eC1621], the “anti-M2e antibody titer, comparison in words” value is reported as “increased anti-M2e antibody titer than M2eC21”. In the case of SLLTEVETPIRNEWGCRCNCCCDSSD [M2eC212121], the “anti-M2e antibody titer, comparison in words” value is reported as “induced a high anti-M2e antibody titer”. For “SLLTEVETPIRNEWGCRCNCDCSCSCD [M2eC21222324]”, the “anti-M2e antibody titer, comparison in words” value was “higher than that of M2eC212223”. In the case of SLLTEVETPIRNEWGCRCNCDCSCSD [M2eC212223], the “anti-M2e antibody titer, comparison in words” value is reported as “higher antibody titer than that of M2e”. For SLLTEVETPIRNEWGCRCNCDCSSD [M2eC2122], the “anti-M2e antibody titer, comparison in words” value was “increased anti-M2e antibody titer than M2eC21”. In the case of SLLTEVETPIRNEWGCRCNCDSCSD [M2eC2123], the “anti-M2e antibody titer, comparison in words” value is reported as “increased anti-M2e antibody titer than M2eC21”.

Tested on: M2e
Design: species or system BALB/c mice
Conditions: mouse, in vivo
Remark: another data set of the same source
In the case of SLLTEVETPIRNEWGCRCNCDCSCSD [M2eC212223], the “anti-M2e antibody titer just before challenge” value is reported as “could induce a high anti-M2e antibody titer”.

Each sequence was assayed on Influenza virus (A/PR8/8/34 strain, H1N1). Conditions: mouse, in vivo.
Type: in vivo, BALB/c mice
With “SLLTEVETPTRSEWECRCSCDCSCSD [swM2eC212223]” the Survival rate was 9/9 and 7/8.
